Data on three compounds can be found in ChEMBL document CHEMBL5647692, “The novel dual PI3K/mTOR inhibitor NVP-BGT226 displays cytotoxic activity in both normoxic and hypoxic hepatocarcinoma cells” (Oncotarget, 2015).

Active and inactive are the calls of the source. The rule behind the calls is not given here. Peptide text beside a SMILES is read from it. * marks the point of attachment. Cbz = O=C(OCc1ccccc1)*; CH2F = FC*

Test [1] deals with SNU-475. Nature of the test: Induction of autophagy in human SNU-475 cells assessed as reduction in cytotoxicity at 10 to 25 uM incubated for 24 hrs by MTT assay. Particulars: dose 10-25 µM. Type of test: functional, cell-based. For orientation: Tetrazolium assays rely on reduction of a dye to a coloured formazan, in cell work by metabolically active cells.
The subject of test [2] is Mahlavu. Briefly: Induction of autophagy in human Mahlavu cells assessed as reduction in cytotoxicity at 10 to 25 uM incubated for 24 hrs by MTT assay. In kind it is functional, cell-based. Conditions: dose 10-25 µM.
Test [3] deals with Mahlavu. Nature of the test: Cytotoxicity against human Mahlavu cells assessed as reduction in cell viability at 10 uM incubated for 24 hrs under normoxia condition by MTT assay. In kind it is functional, cell-based.
Test [4] has as its system SNU-475. Nature of the test: Cytotoxicity against human SNU-475 cells assessed as reduction in cell viability at 10 uM incubated for 24 hrs under hypoxia condition by MTT assay. In kind it is functional, cell-based.
Test [5] relates to Mahlavu. Briefly: Cytotoxicity against human Mahlavu cells assessed as reduction in cell viability at 25 uM incubated for 24 hrs under hypoxia condition by MTT assay. In kind it is functional, cell-based.
In test [6] the test system is SNU-475. Nature of the test: Cytotoxicity against human SNU-475 cells assessed as reduction in cell viability at 25 uM incubated for 24 hrs under hypoxia condition by MTT assay. Type of test: functional, cell-based.
The test system of test [7] is Mahlavu. Briefly: Cytotoxicity against human Mahlavu cells assessed as reduction in cell viability at 10 uM incubated for 24 hrs in presence of BGT226 under hypoxia condition by MTT assay. Type of test: functional, cell-based.
The test system of test [8] is SNU-475. Nature of the test: Cytotoxicity against human SNU-475 cells assessed as reduction in cell viability at 10 uM incubated for 24 hrs in presence of BGT226 under hypoxia condition by MTT assay. Type of test: functional, cell-based.
Test [9] relates to Mahlavu. Nature of the test: Cytotoxicity against human Mahlavu cells assessed as reduction in cell viability at 25 uM incubated for 24 hrs in presence of BGT226 under hypoxia condition by MTT assay. In kind it is functional, cell-based.
Test [10] relates to SNU-475. Briefly: Cytotoxicity against human SNU-475 cells assessed as reduction in cell viability at 25 uM incubated for 24 hrs in presence of BGT226 under hypoxia condition by MTT assay. Type of test: functional, cell-based.
Test [11] deals with Hep 3B2. Briefly: Cytotoxicity against human Hep3B cells assessed as reduction in cell viability at 10 uM incubated for 24 hrs by MTT assay. In kind it is functional, cell-based.
Test [12] deals with HepG2. Briefly: Cytotoxicity against human HepG2 cells assessed as reduction in cell viability at 10 uM incubated for 24 hrs by MTT assay. Type of test: functional, cell-based.
The subject of test [13] is Mahlavu. Nature of the test: Cytotoxicity against human Mahlavu cells assessed as reduction in cell growth at 10 uM incubated for 24 hrs under hypoxia condition by MTT assay. Type of test: functional, cell-based.
The test system of test [14] is Hep 3B2. Nature of the test: Cytotoxicity against human Hep3B cells assessed as reduction in cell growth at 10 uM incubated for 24 hrs under hypoxia condition by MTT assay. In kind it is functional, cell-based.
Test [15] has as its system Mahlavu. Briefly: Induction of apoptosis in human Mahlavu cells assessed as viable cells at 75 uM incubated for 24 hrs by Annexin-V/7-AAD staining based muse cell analyzer method (reference value: 90.52 %). In kind it is functional. Particulars: read-out: Activity.
Test [16] concerns Mahlavu. Nature of the test: Induction of apoptosis in human Mahlavu cells assessed as early apoptotic cells at 75 uM incubated for 24 hrs by Annexin-V/7-AAD staining based muse cell analyzer method (reference value: 6.57 %). Type of test: functional.
For test [17], the system named is Mahlavu. Nature of the test: Induction of apoptosis in human Mahlavu cells assessed as late apoptotic cells at 75 uM incubated for 24 hrs by Annexin-V/7-AAD staining based muse cell analyzer method (reference value: 2.24 %). Type of test: functional.
Test [18] concerns Mahlavu. Nature of the test: Induction of apoptosis in human Mahlavu cells assessed as necrotic cells at 75 uM incubated for 24 hrs by Annexin-V/7-AAD staining based muse cell analyzer method (reference value: 0.67 %). Type of test: functional.
Test [19] has as its system SNU-449. Nature of the test: Induction of apoptosis in human SNU-449 cells assessed as viable cells at 75 uM incubated for 24 hrs by Annexin-V/7-AAD staining based muse cell analyzer method (reference value: 90.07 %). In kind it is functional. Conditions: read-out: Activity.
In test [20] the test system is SNU-449. Briefly: Induction of apoptosis in human SNU-449 cells assessed as early apoptotic cells at 75 uM incubated for 24 hrs by Annexin-V/7-AAD staining based muse cell analyzer method (reference value: 3.95 %). In kind it is functional.
Test [21] concerns SNU-449. Briefly: Induction of apoptosis in human SNU-449 cells assessed as late apoptotic cells at 75 uM incubated for 24 hrs by Annexin-V/7-AAD staining based muse cell analyzer method (reference value: 5.03 %). Type of test: functional.
In test [22] the test system is SNU-449. Nature of the test: Induction of apoptosis in human SNU-449 cells assessed as necrotic cells at 75 uM incubated for 24 hrs by Annexin-V/7-AAD staining based muse cell analyzer method (reference value: 0.95 %). In kind it is functional.

In the case of `CCN(CC)CCCC(C)Nc1ccnc2cc(Cl)ccc12` (configuration not stated), the result in test [1], in [2], in [3], in test [4], in [5] and in [6] was Active. Besides, the outcome in [7], in [8], in test [9] and in test [10] was Active.

Turning to `Cn1cnc(N)c2ncnc1-2`, the outcome in [11], in test [12], in [13] and in test [14] was inactive.

As to `COC(=O)C[C@H](NC(=O)[C@H](C)NC(=O)[C@@H](NC(=O)OCc1ccccc1)C(C)C)C(=O)CF` (Cbz-Val-Ala-Asp(OMe)-CH2F), the viability at 75 µM stood at 89.7% in test [15] and 89.5% in [19]. Besides, the Activity in test [16] is 5%; in [17], 3.78%; in [18] it was 1.52%; in test [20], 4.6%; in [21], 5.35%; in [22], 0.53%.
